In ChEMBL document CHEMBL5604063, “ASAP - DENV-2 NS2B-NS3 protease fluorescence dose response” (2024):
Values joined by “and” are separate entries in the source; they are usually repeats but may differ in a detail not shown here. Equal entries are not always repeated.

Target: Genome polyprotein (dengue virus type 2, UniProt P29990)
Type: functional, Thailand/16681/1984

Genome polyprotein, sequence (P29990 1346-1475 limits assumed): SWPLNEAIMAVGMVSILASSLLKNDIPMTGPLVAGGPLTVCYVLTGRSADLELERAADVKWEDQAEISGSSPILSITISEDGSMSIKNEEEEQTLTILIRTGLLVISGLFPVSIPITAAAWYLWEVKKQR
Genome polyprotein, sequence (P29990 1476-2093 limits assumed): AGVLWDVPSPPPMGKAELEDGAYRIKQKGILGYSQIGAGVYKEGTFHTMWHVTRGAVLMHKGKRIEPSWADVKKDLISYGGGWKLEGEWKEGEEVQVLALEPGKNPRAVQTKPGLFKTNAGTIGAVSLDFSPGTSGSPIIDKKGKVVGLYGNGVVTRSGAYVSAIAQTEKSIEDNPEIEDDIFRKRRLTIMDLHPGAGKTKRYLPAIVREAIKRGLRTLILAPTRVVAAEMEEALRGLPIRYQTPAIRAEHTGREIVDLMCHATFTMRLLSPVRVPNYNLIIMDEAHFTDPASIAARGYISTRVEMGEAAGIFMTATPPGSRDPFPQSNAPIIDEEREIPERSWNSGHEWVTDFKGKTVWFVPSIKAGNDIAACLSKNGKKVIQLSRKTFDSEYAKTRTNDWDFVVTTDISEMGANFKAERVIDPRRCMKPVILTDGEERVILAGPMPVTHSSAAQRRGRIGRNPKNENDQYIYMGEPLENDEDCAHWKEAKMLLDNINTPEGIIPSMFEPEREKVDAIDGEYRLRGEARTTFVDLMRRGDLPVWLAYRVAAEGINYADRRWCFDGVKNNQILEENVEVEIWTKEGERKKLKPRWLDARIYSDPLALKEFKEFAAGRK

SMILES | IC50
c1ccc2c(CN3CCCc4cnccc4C3)n[nH]c2c1 | > 99.5 µM
NCc1nccc(NC(=O)c2cc(Cl)cc(NC(=O)OCc3ccccc3)c2)n1 | > 99.5 µM
CCn1cc(C(=O)Nc2ccccc2)nc(N2CC[C@@H](CO)C2)c1=O | > 99.5 µM
c1cnc2c(c1)CC[C@@H]2NCc1n[nH]c2ccccc12 | > 99.5 µM
C[C@@H](Cc1c[nH]c2ccccc12)N1CCC(c2nc3ccccc3s2)CC1 | > 99.5 µM
O=C(Nc1cc(Cl)cc(C(=O)Nc2cccc(C3CCNCC3)c2)c1)OCc1ccccc1 | 20.5 µM and 20.3 µM
NCc1cccc(NC(=O)[C@@H]2C[C@@H]3CC[C@H]2N3C(=O)OCc2ccccc2)c1 | > 99.5 µM
COc1cc(C(=O)O)c(S(=O)(=O)Nc2ccc(Oc3ccccc3Cl)cc2)cc1F | 30.3 µM
COc1ccc(C)cc1S(=O)(=O)N[C@@H](C(=O)Nc1cccc(CN)c1)c1ccc(OCc2ccccc2)cc1 | 96 µM
CN(C)Cc1cccc(-c2ccc(S(=O)(=O)Nc3ccc(Cl)cc3C(=O)O)cc2)c1 | > 99.5 µM
NCc1cccc(NC(=O)[C@@H](NS(=O)(=O)CCc2ccccc2)c2ccc(OCc3ccccc3)cc2)c1 | 72.8 µM
NC1(c2cccc(NC(=O)c3cc(Cl)cc(NC(=O)OCc4ccccc4)c3)c2)CCC1 | > 99.5 µM
Cc1ccc(-c2nc(NC(=O)[C@H](NC(=O)OCc3ccccc3)c3ccc(OCc4ccccc4)cc3)sc2CN(C)C)cc1 | > 99.5 µM
NCc1cccc(NC(=O)[C@@]23C[C@@H](NC(=O)OCc4ccccc4)C[C@@H]2C3)c1 | > 99.5 µM
Cn1ccc(-c2n[nH]cc2CN2CCC(c3nc4ccccc4s3)CC2)n1 | > 99.5 µM
NCc1cc(S(=O)(=O)Nc2ccc(Cl)cc2C(=O)O)ccc1Oc1ccccc1 | > 99.5 µM
O=C(O)c1cc(Cl)cc(Cl)c1S(=O)(=O)Nc1ccc(Oc2ccccc2Cl)cc1 | > 99.5 µM
CCNC(=O)c1cn(CC)c(=O)c(N2CC[C@@H](CO)C2)n1 | > 99.5 µM
NCc1cccc(NC(=O)[C@H](NC(=O)OCc2ccccc2)c2cccc(OCC3CCOCC3)c2)c1 | > 99.5 µM
O=C(O)c1cc(Cl)ccc1NS(=O)(=O)c1ccc(-c2cscn2)cc1 | 87.5 µM
C[C@H]1CN(C(=O)c2cccc3c(CN)cccc23)CCC12CCNCC2 | > 99.5 µM
CCn1nccc1S(=O)(=O)N[C@@H](C(=O)Nc1cccc(CN)c1)c1ccc(OCc2ccccc2)cc1 | > 99.5 µM
O=C(O)c1cc(Cl)ccc1S(=O)(=O)N[C@H]1CC[C@@H](Oc2cnccn2)CC1 | > 99.5 µM
NCC1CCN(C(=O)c2cc(Cl)cc(NC(=O)OCc3ccccc3)c2)CC1 | > 99.5 µM
COc1ncccc1S(=O)(=O)N[C@H](C(=O)Nc1cccc(CN)c1)c1ccc(OCc2ccccc2)cc1 | > 99.5 µM

SMILES | IC50
Cn1ccc(CS(=O)(=O)N[C@@H](C(=O)Nc2cccc(CN)c2)c2ccc(OCc3ccccc3)cc2)n1 | > 99.5 µM
CC1=NN(c2ccc(NS(=O)(=O)c3ccc(Cl)cc3C(=O)O)cn2)C(=O)C1 | > 99.5 µM
O=C(O)c1cc(Cl)ccc1S(=O)(=O)Nc1ccc(C(=O)N2CCCCC2)cc1 | > 99.5 µM
CN(C)[C@@H]1C[C@H](C(=O)Nc2cccc(CN)c2)CN(C(=O)OCc2ccccc2)C1 | > 99.5 µM
c1cncc(CC2CN(Cc3n[nH]c4ccccc34)C2)c1 | > 99.5 µM
O=C(O)c1cc(Cl)ccc1NS(=O)(=O)c1ccc(-c2cncs2)cc1 | 75.3 µM
O=C(Nc1cc(Cl)cc(C(=O)Nc2cccc(CC3CCNCC3)c2)c1)OCc1ccccc1 | > 99.5 µM
NCc1cccc(NC(=O)C[C@@H](NC(=O)OCc2ccccc2)C2CCCCC2)c1 | 45.2 µM and 44.4 µM
CCC1([C@H](NC(=O)OCc2ccccc2)C(=O)NCc2cccc(CN)c2)CCCCC1 | > 99.5 µM
NCc1cccc(NC(=O)C[C@@H]2[C@H]3CC[C@H](C3)N2C(=O)OCc2ccccc2)c1 | > 99.5 µM
NCCc1ccc(NC(=O)c2cc(Cl)cc(NC(=O)OCc3ccccc3)c2)cc1 | 30.9 µM
Cc1cc(NS(=O)(=O)c2ccc(Cl)cc2C(=O)O)nn1Cc1ccccc1 | > 99.5 µM
NCCc1cccc(NC(=O)c2cc(Cl)cc(NC(=O)OCc3ccccc3)c2)c1 | 49.7 µM and 44 µM
Fc1cccc(F)c1-c1n[nH]cc1CN1CCC(c2nc3ccccc3s2)CC1 | > 99.5 µM
N#Cc1ccc(S(=O)(=O)Nc2ccc(Oc3ccccc3Cl)cc2)c(C(=O)O)c1 | 55.7 µM
O=C(O)c1cc(Cl)ccc1S(=O)(=O)Nc1ccc(-c2n[nH]c3c2CCCC3)cc1 | 73.2 µM
Cc1cc(C)cc(C(=O)N2CCC(NS(=O)(=O)c3ccc(Cl)cc3C(=O)O)CC2)c1 | > 99.5 µM
COc1ccc([C@@H](CC(=O)Nc2cccc(CN)c2)NC(=O)OCc2ccccc2)cc1Br | 50.1 µM
COC(=O)c1n[nH]cc1CN1CCC(c2nc3ccccc3s2)CC1 | > 99.5 µM
O=C(O)c1cc(Cl)ccc1S(=O)(=O)Nc1ccc(CN2CCCCC2)cc1 | > 99.5 µM
CC(C)c1cc(S(=O)(=O)N[C@H](C(=O)Nc2cccc(CN)c2)c2ccc(OCc3ccccc3)cc2)on1 | > 99.5 µM
Cc1nc(CCCNCc2n[nH]c3ccccc23)cs1 | > 99.5 µM
COc1ncc(C(=O)Nc2cccc(CN)c2)cc1NC(=O)OCc1ccccc1 | > 99.5 µM
NCc1cccc(NC(=O)[C@@H](NS(=O)(=O)c2ccccn2)c2ccc(OCc3ccccc3)cc2)c1 | > 99.5 µM
C[C@@H]1C[C@H](NS(=O)(=O)c2ccc(Cl)cc2C(=O)O)C[C@H](C)N1Cc1ccccc1 | > 99.5 µM

SMILES | IC50
NC[C@H]1CC[C@H](NC(=O)c2cc(Cl)cc(NC(=O)OCc3ccccc3)c2)CC1 | > 99.5 µM
NCc1cccc(NC(=O)[C@@H]2CCC[C@H](NC(=O)OCc3ccccc3)C2)c1 | > 99.5 µM
c1ccc2c(CN[C@H]3CCc4ncsc4C3)n[nH]c2c1 | > 99.5 µM
NCc1cc(S(=O)(=O)Nc2ccc(Cl)cc2C(=O)NCC(F)(F)F)ccc1Oc1ccccc1 | > 99.5 µM
O=C(O)c1cc(Cl)ccc1S(=O)(=O)NC1CCN(S(=O)(=O)c2cccs2)CC1 | > 99.5 µM
NCCNC(=O)c1cc(Cl)cc(NC(=O)OCc2ccccc2)c1 | > 99.5 µM
NC1CCN(C(=O)c2cc(Cl)cc(NC(=O)OCc3ccccc3)c2)CC1 | > 99.5 µM
c1ccc(-c2ncc(CN3CCC(c4nc5ccccc5s4)CC3)[nH]2)cc1 | > 99.5 µM
Cc1cccc(N2CCC(NS(=O)(=O)c3ccc(Cl)cc3C(=O)O)CC2)n1 | > 99.5 µM
c1ccc2sc(C3CCN([C@H]4Cc5[nH]c6ccccc6c5C4)CC3)nc2c1 | > 99.5 µM
CCn1cc(C(=O)NCc2ccccc2)nc(N2CC[C@@H](CO)C2)c1=O | > 99.5 µM
C[C@@H](N)c1ccc(NC(=O)c2cc(Cl)cc(NC(=O)OCc3ccccc3)c2)cc1 | 48.2 µM
CC1(C)CNC[C@H](C(=O)Nc2cccc(CN)c2)C1 | > 99.5 µM
CCn1cc(C(=O)N2CCN(C)CC2)nc(N2CC[C@@H](CO)C2)c1=O | > 99.5 µM
O=C(O)c1cc(Cl)ccc1S(=O)(=O)Nc1ccc(S(=O)(=O)Nc2ccccc2)cc1 | > 99.5 µM
NCc1cccc(NC(=O)[C@@H](NS(=O)(=O)C[C@H]2CCCCO2)c2ccc(OCc3ccccc3)cc2)c1 | > 99.5 µM
O=C(O)c1cc(Cl)ccc1S(=O)(=O)N[C@H]1CC[C@H](Oc2cnccn2)CC1 | > 99.5 µM
NCc1cccc(NC(=O)[C@H](NS(=O)(=O)c2cccnc2)c2ccc(OCc3ccccc3)cc2)c1 | > 99.5 µM
NCc1cccc(NC(=O)[C@H](NC(=O)OCc2ccccc2)c2cccc(OCc3ncccn3)c2)c1 | > 99.5 µM
CCc1ncc(CN2CCC(c3nc4ccccc4s3)CC2)[nH]1 | > 99.5 µM
CCn1c(=O)c(N2CCC[C@H]2c2nncs2)nc2ccccc21 | > 99.5 µM
Cc1cc(CN(C)C)cc(NC(=O)[C@H](NC(=O)OCc2ccccc2)c2ccc(OCc3ccccc3)cc2)c1 | > 99.5 µM
c1ccc2sc(C3CCN(Cc4n[nH]c5c4CCCC5)CC3)nc2c1 | > 99.5 µM
COc1ccc(-c2cc(NS(=O)(=O)c3ccc(Cl)cc3C(=O)O)ccc2OC)cc1 | 48.8 µM
CCn1nc(-c2ccccc2)cc1NS(=O)(=O)c1ccc(Cl)cc1C(=O)O | > 99.5 µM

SMILES | IC50
COc1n[nH]cc1CN1CCC(c2nc3ccccc3s2)CC1 | > 99.5 µM
Cc1nn(C)cc1S(=O)(=O)N[C@@H](C(=O)Nc1cccc(CN)c1)c1ccc(OCc2ccccc2)cc1 | > 99.5 µM
Cn1ccnc1S(=O)(=O)N[C@@H](C(=O)Nc1cccc(CN)c1)c1ccc(OCc2ccccc2)cc1 | > 99.5 µM
O=C(O)c1cc(Cl)ccc1NS(=O)(=O)c1ccc(-c2ccc(F)cc2)cc1 | 12.5 µM
CC1(N2CCC(NS(=O)(=O)c3ccc(Cl)cc3C(=O)O)CC2)CCCCC1 | > 99.5 µM
CCCOc1ccc([C@@H](CC(=O)Nc2cccc(CN)c2)NC(=O)OCc2ccccc2)cc1 | 24.7 µM and 59.4 µM
CN(C)c1cc(-c2ccc(S(=O)(=O)Nc3ccc(Cl)cc3C(=O)O)cc2)ccn1 | 87.6 µM
NCc1cccc(NC(=O)[C@@H](NS(=O)(=O)c2ccccc2F)c2ccc(OCc3ccccc3)cc2)c1 | > 99.5 µM
c1ccc2c(CN[C@H]3CCc4c([nH]c5ccccc45)C3)n[nH]c2c1 | > 99.5 µM
CCS(=O)(=O)N[C@@H](C(=O)Nc1cccc(CN)c1)c1ccc(OCc2ccccc2)cc1 | > 99.5 µM
CN1CC=C(c2ccc(S(=O)(=O)Nc3ccc(Cl)cc3C(=O)O)cc2)CC1 | > 99.5 µM
CN(C(=O)c1cc(Cl)cc(NC(=O)OCc2ccccc2)c1)c1ccc(CN)cc1 | > 99.5 µM
CC(=O)N1CCC[C@H]1C(=O)N[C@@H](C(=O)Nc1cccc(CN)c1)c1ccc(OCc2ccccc2)cc1 | > 99.5 µM
Cn1nccc1CN1CCC(NS(=O)(=O)c2ccc(Cl)cc2C(=O)O)CC1 | > 99.5 µM
c1cncc(C2CC(NCc3n[nH]c4ccccc34)C2)c1 (stereo not drawn) | > 99.5 µM
N#Cc1ccccc1O[C@H]1CC[C@H](NS(=O)(=O)c2ccc(Cl)cc2C(=O)O)CC1 | > 99.5 µM
NCc1cccc(NC(=O)[C@H](NS(=O)(=O)C[C@H]2COCCO2)c2ccc(OCc3ccccc3)cc2)c1 | > 99.5 µM
O=C(O)c1cc(Cl)ccc1S(=O)(=O)Nc1ccc(F)c(NC(=O)C2CC2)c1 | > 99.5 µM
O=C(O)c1cc(Cl)ccc1S(=O)(=O)NC1CCN(c2nc(C3CC3)cc(C(F)(F)F)n2)CC1 | 15.5 µM
CCc1ccc(S(=O)(=O)N[C@@H](C(=O)Nc2cccc(CN)c2)c2ccc(OCc3ccccc3)cc2)cc1 | 92 µM
CCn1cc(S(=O)(=O)N[C@@H](C(=O)Nc2cccc(CN)c2)c2ccc(OCc3ccccc3)cc2)cn1 | > 99.5 µM
NCc1cccc(NC(=O)[C@H](NC(=O)OCc2ccccc2)c2cccc(OCc3ccccn3)c2)c1 | > 99.5 µM
NCc1ccc(Oc2ccc(S(=O)(=O)Nc3ccc(Cl)cc3C(=O)O)cc2)cc1 | > 99.5 µM
